Results reported in ChEMBL document CHEMBL3046556, “Microwave-assisted synthesis and antimicrobial screening of new imidazole derivatives bearing 4-thiazolidinone nucleus” (2013).
≈ marks a conversion by molar mass, not a printed value. Calls of active or inactive are those of the source. The rule behind the calls is not given here.

How the values were obtained:
Pseudomonas aeruginosa = test: Antibacterial activity against Pseudomonas aeruginosa MTCC 1688 assessed as growth inhibition at 12.5 to 1000 ug/mL after 24 hr by NCCLS broth dilution method; format: functional, organism-based
Candida albicans = test: Antifungal activity against Candida albicans MTCC 227 assessed as growth inhibition at 12.5 to 1000 ug/mL after 48 hr by broth dilution method; format: functional, organism-based
Staphylococcus aureus [1] = test: Antibacterial activity against Staphylococcus aureus MTCC 96 assessed as growth inhibition at 12.5 to 1000 ug/mL after 24 hr by NCCLS broth dilution method; format: functional, organism-based
Aspergillus niger = test: Antifungal activity against Aspergillus niger MTCC 282 assessed as growth inhibition at 12.5 to 1000 ug/mL after 48 hr by broth dilution method; format: functional, organism-based
Streptococcus pyogenes = test: Antibacterial activity against Streptococcus pyogenes MTCC 442 assessed as growth inhibition at 12.5 to 1000 ug/mL after 24 hr by NCCLS broth dilution method; format: functional, organism-based
Aspergillus clavatus = test: Antifungal activity against Aspergillus clavatus MTCC 1323 assessed as growth inhibition at 12.5 to 1000 ug/mL after 48 hr by broth dilution method; format: functional, organism-based
Escherichia coli [2] = test: Antibacterial activity against Escherichia coli MTCC 443 assessed as growth inhibition at 12.5 to 1000 ug/mL after 24 hr by NCCLS broth dilution method; format: functional, organism-based
Escherichia coli [3] = test: Antibacterial activity against Escherichia coli MTCC 443 assessed as growth inhibition after 24 hr by NCCLS broth dilution method; format: functional; settings: MTCC 443, 24 h
Staphylococcus aureus [4] = test: Antibacterial activity against Staphylococcus aureus MTCC 96 assessed as growth inhibition after 24 hr by NCCLS broth dilution method; format: functional; settings: MTCC 96, 24 h

In the case of `CC1=N/C(=C/c2ccccc2[N+](=O)[O-])C(=O)N1c1ccc(/C(C)=N/NC(N)=S)cc1`, the “growth inhibition (GI)” value (Pseudomonas aeruginosa) is reported as “inactive”, the “growth inhibition (GI)” value (Candida albicans) is reported as “Active” and the “growth inhibition (GI)” value (Staphylococcus aureus [1]) is reported as “inactive”. The “growth inhibition (GI)” value (Aspergillus niger) was “Active”, the “growth inhibition (GI)” value (Streptococcus pyogenes) was “inactive” and the “growth inhibition (GI)” value (Aspergillus clavatus) was “Active”. The “growth inhibition (GI)” value (Escherichia coli [2]) was “inactive”.

In the case of `CC1=N/C(=C/c2ccc(F)cc2)C(=O)N1c1ccc(/C(C)=N/NC(N)=S)cc1`, the “growth inhibition (GI)” value (Pseudomonas aeruginosa) is reported as “inactive”, the “growth inhibition (GI)” value (Candida albicans) is reported as “Active” and the “growth inhibition (GI)” value (Staphylococcus aureus [1]) is reported as “inactive”. The “growth inhibition (GI)” value (Aspergillus niger) was “Active”, the “growth inhibition (GI)” value (Streptococcus pyogenes) was “inactive” and the “growth inhibition (GI)” value (Aspergillus clavatus) was “Active”. The “growth inhibition (GI)” value (Escherichia coli [2]) was “inactive”.

`CC(=O)c1ccc(N2C(=O)/C(=C\c3ccccc3F)N=C2C)cc1` was tested, and the “growth inhibition (GI)” value (Pseudomonas aeruginosa) was “inactive”, the “growth inhibition (GI)” value (Candida albicans) was “inactive” and the “growth inhibition (GI)” value (Staphylococcus aureus [1]) was “inactive”. For the same compound, the “growth inhibition (GI)” value (Aspergillus niger) was “inactive”, the “growth inhibition (GI)” value (Streptococcus pyogenes) was “inactive” and the “growth inhibition (GI)” value (Aspergillus clavatus) was “inactive”. For the same compound, the “growth inhibition (GI)” value (Escherichia coli [2]) was “inactive”.

For `CC1=N/C(=C/c2ccc(Cl)cc2)C(=O)N1c1ccc(/C(C)=N/NC(N)=S)cc1`, the “growth inhibition (GI)” value (Pseudomonas aeruginosa) was “inactive”, the “growth inhibition (GI)” value (Candida albicans) was “Active” and the “growth inhibition (GI)” value (Staphylococcus aureus [1]) was “inactive”. For the same compound, the “growth inhibition (GI)” value (Aspergillus niger) was “Active”, the “growth inhibition (GI)” value (Streptococcus pyogenes) was “inactive” and the “growth inhibition (GI)” value (Aspergillus clavatus) was “Active”. The “growth inhibition (GI)” value (Escherichia coli [2]) was “inactive”.

In the case of `CC(=O)c1ccc(N2C(=O)/C(=C\c3ccc(F)cc3)N=C2C)cc1`, the “growth inhibition (GI)” value (Pseudomonas aeruginosa) is reported as “inactive”, the “growth inhibition (GI)” value (Candida albicans) is reported as “inactive” and the “growth inhibition (GI)” value (Staphylococcus aureus [1]) is reported as “inactive”. The “growth inhibition (GI)” value (Aspergillus niger) was “inactive”, the “growth inhibition (GI)” value (Streptococcus pyogenes) was “inactive” and the “growth inhibition (GI)” value (Aspergillus clavatus) was “inactive”. The “growth inhibition (GI)” value (Escherichia coli [2]) was “inactive”.

With `CC1=N/C(=C/c2ccccc2C)C(=O)N1c1ccc(/C(C)=N/NC(N)=S)cc1` the “growth inhibition (GI)” value (Pseudomonas aeruginosa) was “inactive”, the “growth inhibition (GI)” value (Candida albicans) was “Active” and the “growth inhibition (GI)” value (Staphylococcus aureus [1]) was “inactive”. For the same compound, the “growth inhibition (GI)” value (Aspergillus niger) was “Active”, the “growth inhibition (GI)” value (Streptococcus pyogenes) was “inactive” and the “growth inhibition (GI)” value (Aspergillus clavatus) was “Active”. For the same compound, the “growth inhibition (GI)” value (Escherichia coli [2]) was “inactive”.

`CC(=O)c1ccc(N2C(=O)/C(=C\c3cccc(O)c3)N=C2C)cc1` was tested, and the “growth inhibition (GI)” value (Pseudomonas aeruginosa) was “inactive”, the “growth inhibition (GI)” value (Candida albicans) was “inactive” and the “growth inhibition (GI)” value (Staphylococcus aureus [1]) was “inactive”. The “growth inhibition (GI)” value (Aspergillus niger) was “inactive”, the “growth inhibition (GI)” value (Streptococcus pyogenes) was “inactive” and the “growth inhibition (GI)” value (Aspergillus clavatus) was “inactive”. The “growth inhibition (GI)” value (Escherichia coli [2]) was “inactive”.

With `COc1ccc(/C=C2/N=C(C)N(c3ccc(C(C)=O)cc3)C2=O)cc1` the “growth inhibition (GI)” value (Pseudomonas aeruginosa) was “inactive”, the “growth inhibition (GI)” value (Candida albicans) was “inactive” and the “growth inhibition (GI)” value (Aspergillus niger) was “inactive”. The MIC (Escherichia coli [3]) was 1000 µg/mL (≈ 2990 µM), the “growth inhibition (GI)” value (Streptococcus pyogenes) was “inactive” and the “growth inhibition (GI)” value (Aspergillus clavatus) was “inactive”. For the same compound, the MIC (Staphylococcus aureus [4]) was 1000 µg/mL (≈ 2990 µM).

For `COc1ccccc1/C=C1/N=C(C)N(c2ccc(/C(C)=N/NC(N)=S)cc2)C1=O`, the “growth inhibition (GI)” value (Pseudomonas aeruginosa) was “inactive”, the “growth inhibition (GI)” value (Candida albicans) was “Active” and the “growth inhibition (GI)” value (Staphylococcus aureus [1]) was “inactive”. The “growth inhibition (GI)” value (Aspergillus niger) was “Active”, the “growth inhibition (GI)” value (Streptococcus pyogenes) was “inactive” and the “growth inhibition (GI)” value (Aspergillus clavatus) was “Active”. The “growth inhibition (GI)” value (Escherichia coli [2]) was “inactive”.

For `CC(=O)c1ccc(N2C(=O)/C(=C\c3ccc([N+](=O)[O-])cc3)N=C2C)cc1`, the “growth inhibition (GI)” value (Pseudomonas aeruginosa) was “inactive”, the “growth inhibition (GI)” value (Candida albicans) was “inactive” and the “growth inhibition (GI)” value (Staphylococcus aureus [1]) was “inactive”. The “growth inhibition (GI)” value (Aspergillus niger) was “inactive”, the “growth inhibition (GI)” value (Streptococcus pyogenes) was “inactive” and the “growth inhibition (GI)” value (Aspergillus clavatus) was “inactive”. For the same compound, the “growth inhibition (GI)” value (Escherichia coli [2]) was “inactive”.

For `CC1=N/C(=C/c2cccc(O)c2)C(=O)N1c1ccc(/C(C)=N/NC(N)=S)cc1`, the “growth inhibition (GI)” value (Pseudomonas aeruginosa) was “inactive”, the “growth inhibition (GI)” value (Candida albicans) was “Active” and the “growth inhibition (GI)” value (Aspergillus niger) was “Active”. The MIC (Escherichia coli [3]) was 1000 µg/mL (≈ 2540 µM), the “growth inhibition (GI)” value (Streptococcus pyogenes) was “inactive” and the “growth inhibition (GI)” value (Aspergillus clavatus) was “Active”. It also gave an MIC (Staphylococcus aureus [4]) of 500 µg/mL (≈ 1270 µM).

In the case of `CC(=O)c1ccc(N2C(=O)/C(=C\c3ccccc3[N+](=O)[O-])N=C2C)cc1`, the “growth inhibition (GI)” value (Pseudomonas aeruginosa) is reported as “inactive”, the “growth inhibition (GI)” value (Candida albicans) is reported as “inactive” and the “growth inhibition (GI)” value (Staphylococcus aureus [1]) is reported as “inactive”. For the same compound, the “growth inhibition (GI)” value (Aspergillus niger) was “inactive”, the “growth inhibition (GI)” value (Streptococcus pyogenes) was “inactive” and the “growth inhibition (GI)” value (Aspergillus clavatus) was “inactive”. For the same compound, the “growth inhibition (GI)” value (Escherichia coli [2]) was “inactive”.

In the case of `CC(=O)c1ccc(N2C(=O)/C(=C\c3ccccc3C)N=C2C)cc1`, the “growth inhibition (GI)” value (Pseudomonas aeruginosa) is reported as “inactive”, the “growth inhibition (GI)” value (Candida albicans) is reported as “inactive” and the “growth inhibition (GI)” value (Staphylococcus aureus [1]) is reported as “inactive”. For the same compound, the “growth inhibition (GI)” value (Aspergillus niger) was “inactive”, the “growth inhibition (GI)” value (Streptococcus pyogenes) was “inactive” and the “growth inhibition (GI)” value (Aspergillus clavatus) was “inactive”. The “growth inhibition (GI)” value (Escherichia coli [2]) was “inactive”.

For `CC(=O)c1ccc(N2C(=O)/C(=C\c3ccccc3)N=C2C)cc1`, the “growth inhibition (GI)” value (Pseudomonas aeruginosa) was “inactive”, the “growth inhibition (GI)” value (Candida albicans) was “inactive” and the “growth inhibition (GI)” value (Staphylococcus aureus [1]) was “inactive”. For the same compound, the “growth inhibition (GI)” value (Aspergillus niger) was “inactive”, the “growth inhibition (GI)” value (Streptococcus pyogenes) was “inactive” and the “growth inhibition (GI)” value (Aspergillus clavatus) was “inactive”. The “growth inhibition (GI)” value (Escherichia coli [2]) was “inactive”.

With `CC1=N/C(=C/c2ccc([N+](=O)[O-])cc2)C(=O)N1c1ccc(/C(C)=N/NC(N)=S)cc1` the “growth inhibition (GI)” value (Pseudomonas aeruginosa) was “inactive”, the “growth inhibition (GI)” value (Candida albicans) was “Active” and the “growth inhibition (GI)” value (Staphylococcus aureus [1]) was “inactive”. The “growth inhibition (GI)” value (Aspergillus niger) was “Active”, the “growth inhibition (GI)” value (Streptococcus pyogenes) was “inactive” and the “growth inhibition (GI)” value (Aspergillus clavatus) was “Active”. The “growth inhibition (GI)” value (Escherichia coli [2]) was “inactive”.

For `CC1=N/C(=C/c2ccccc2Cl)C(=O)N1c1ccc(/C(C)=N/NC(N)=S)cc1`, the “growth inhibition (GI)” value (Pseudomonas aeruginosa) was “inactive”, the “growth inhibition (GI)” value (Candida albicans) was “Active” and the “growth inhibition (GI)” value (Staphylococcus aureus [1]) was “inactive”. The “growth inhibition (GI)” value (Aspergillus niger) was “Active”, the “growth inhibition (GI)” value (Streptococcus pyogenes) was “inactive” and the “growth inhibition (GI)” value (Aspergillus clavatus) was “Active”. The “growth inhibition (GI)” value (Escherichia coli [2]) was “inactive”.

With `CC(=O)c1ccc(N2C(=O)/C(=C\c3ccccc3Cl)N=C2C)cc1` the “growth inhibition (GI)” value (Pseudomonas aeruginosa) was “inactive”, the “growth inhibition (GI)” value (Candida albicans) was “inactive” and the “growth inhibition (GI)” value (Staphylococcus aureus [1]) was “inactive”. For the same compound, the “growth inhibition (GI)” value (Aspergillus niger) was “inactive”, the “growth inhibition (GI)” value (Streptococcus pyogenes) was “inactive” and the “growth inhibition (GI)” value (Aspergillus clavatus) was “inactive”. The “growth inhibition (GI)” value (Escherichia coli [2]) was “inactive”.

For `CC1=N/C(=C/c2ccccc2)C(=O)N1c1ccc(/C(C)=N/NC(N)=S)cc1`, the “growth inhibition (GI)” value (Pseudomonas aeruginosa) was “inactive”, the “growth inhibition (GI)” value (Candida albicans) was “Active” and the “growth inhibition (GI)” value (Staphylococcus aureus [1]) was “inactive”. The “growth inhibition (GI)” value (Aspergillus niger) was “Active”, the “growth inhibition (GI)” value (Streptococcus pyogenes) was “inactive” and the “growth inhibition (GI)” value (Aspergillus clavatus) was “Active”. The “growth inhibition (GI)” value (Escherichia coli [2]) was “inactive”.

`CC(=O)c1ccc(N2C(=O)/C(=C\c3cccc(C)c3)N=C2C)cc1` was tested, and the “growth inhibition (GI)” value (Pseudomonas aeruginosa) was “inactive”, the “growth inhibition (GI)” value (Candida albicans) was “inactive” and the “growth inhibition (GI)” value (Staphylococcus aureus [1]) was “inactive”. The “growth inhibition (GI)” value (Aspergillus niger) was “inactive”, the “growth inhibition (GI)” value (Streptococcus pyogenes) was “inactive” and the “growth inhibition (GI)” value (Aspergillus clavatus) was “inactive”. The “growth inhibition (GI)” value (Escherichia coli [2]) was “inactive”.

For `CC(=O)c1ccc(N2C(=O)/C(=C\c3ccc(Cl)cc3)N=C2C)cc1`, the “growth inhibition (GI)” value (Pseudomonas aeruginosa) was “inactive”, the “growth inhibition (GI)” value (Candida albicans) was “inactive” and the “growth inhibition (GI)” value (Staphylococcus aureus [1]) was “inactive”. For the same compound, the “growth inhibition (GI)” value (Aspergillus niger) was “inactive”, the “growth inhibition (GI)” value (Streptococcus pyogenes) was “inactive” and the “growth inhibition (GI)” value (Aspergillus clavatus) was “inactive”. For the same compound, the “growth inhibition (GI)” value (Escherichia coli [2]) was “inactive”.

In the case of `CC1=N/C(=C/c2ccccc2F)C(=O)N1c1ccc(/C(C)=N/NC(N)=S)cc1`, the “growth inhibition (GI)” value (Pseudomonas aeruginosa) is reported as “inactive”, the “growth inhibition (GI)” value (Candida albicans) is reported as “Active” and the “growth inhibition (GI)” value (Staphylococcus aureus [1]) is reported as “inactive”. The “growth inhibition (GI)” value (Aspergillus niger) was “Active”, the “growth inhibition (GI)” value (Streptococcus pyogenes) was “inactive” and the “growth inhibition (GI)” value (Aspergillus clavatus) was “Active”. The “growth inhibition (GI)” value (Escherichia coli [2]) was “inactive”.
